Among the data in a melting point compilation (Tetko et al.; mined from patent text by program, amines drawn as free bases though some values may be those of a salt) are melting point values, retold here.

The structures appear in SMILES notation.

As a reminder, the melting point is the temperature, or range, at which the solid turns liquid. For the compound `CCS(=O)(=O)C1C(OC)(OC)CC2C3CCC4=CC(=O)C=CC4(C)C3(F)C(O)CC21C` (configuration not stated), the melting point was in the range of 268 to 270 °C.
With `CC1=C(c2ccc(CC(C)NCC(O)c3cccc(Cl)c3)cc2)CCC(=O)N1` (configuration not stated) the figure was 103 to 106 °C.
Take `O=C1CCC(c2ccc(N=C=S)cc2)=NN1`: the melting point was in the range of 182 to 183 °C.
Consider `NS(=O)(=O)c1ccc(C(=O)NCc2ccccc2)s1`, for which the melting point turned out to be 203 °C.
In turn, `CC(=O)Oc1c(C)cc(C=CC(=O)Nc2cnc3c(C)cc(C)cc3c2-c2ccccc2Cl)cc1C` returned a melting point of 207 to 208 °C.
With `FC(F)(F)c1ccc(CC[C@H]2CNCCN2)cc1` the figure was 135 to 141 °C; with `CN(O)C(=O)Nc1c(C(=O)c2cccc(Cl)c2)[nH]c2cc(Cl)ccc12`, 205 to 206 °C; with `COc1cc2ncc3c4cc5c(cc4ccc3c2cc1OC)OCO5`, 225 °C.
With `CN(C)c1ccc(-c2nc3c(N[C@H]4[C@@H](C(N)=O)[C@@H]5C=C[C@H]4C5)c(Br)cnc3[nH]2)cc1` the figure was 264 to 265 °C; with `CCCN(Cc1ccc(-c2ccccc2C(=N)NO)cc1)c1nc2ccccc2cc1C(=O)OCC`, 61 to 67 °C.
`c1ccc(Nc2ccc(-c3ccc(N(c4ccc(-c5ccccc5)cc4)c4ccc(-c5ccccc5)cc4)cc3)cc2)cc1` returned a melting point of 146 °C.
The compound `O=C1Cc2ccccc2C(c2ccccc2F)N1` (configuration not stated) came in with a melting point of 167 to 169 °C.
`CCOCCC(=O)OC1(C(=O)CO)CCC2C3CCC4=CC(=O)CCC4(C)C3C(O)CC21C` (configuration not stated) yielded a melting point of 149 °C.
With `CC(C)(C)n1nnc(Cc2ccc(CCC(=O)O)cc2)n1` the figure was 139 to 141 °C; with `COC(=O)[C@H]1[C@@H](N=[N+]=[N-])C(=O)N1Cc1ccc(OC)cc1OC` (relative stereo), 82 to 84 °C; with `C[C@]1(N2C(=O)c3ccc(CNC(=O)c4ccc(Br)cn4)cc3C2=O)CCC(=O)NC1=O`, 260 to 262 °C.
Under `COc1ccc(Cn2c(Br)nc3c(-c4ccco4)ncnc32)cc1` stands 150 to 151 °C; under `CN(C)c1nc(C(=O)NCCO[N+](=O)[O-])cs1`, 94 to 95 °C.
`O=C(O)C1CN(S(=O)(=O)c2ccc3cc(Br)ccc3c2)CCN1C(=O)C1CCN(c2ccncc2)CC1` (configuration not stated) registered a melting point of 216 to 222 °C.
With `CC(C)n1nc(-c2cc(C#N)c(N)nc2-c2ccccc2)ccc1=O` the figure was 197 to 198 °C; with `CN1C(=O)N2C(=NC1(C)C)N(C(=O)Nc1ccc(Cl)cc1)c1ccccc12`, 206 to 211 °C; with `CCn1cc(C(=O)O)c(=O)c2cc(F)c(C(C)=O)c(F)c21`, 250 to 251 °C.
With `CCCCc1nc2c(N)nc3c(c2n1CCCCN)CCCC3` the figure was 63 to 67 °C; with `CCCN(CCC)CC1CCN(CCNC(=O)N2c3ccccc3C(=O)Nc3cccnc32)C1` (configuration not stated), 134 to 138 °C.
`Cc1cc(C(O)CN2CCC(O)(c3cccc(F)c3)CC2)c(C)cc1O` (configuration not stated): the melting point is 193 °C.
With `CN(C)C(=C(C#N)C#N)N(C)N=Cc1ccccc1` the figure was 127 to 128 °C; with `O=[N+]([O-])c1ccc(NC2CCCCC2)c([N+](=O)[O-])c1`, 153 °C.
`O=C(c1ccccc1)c1cc([N+](=O)[O-])ccc1NC1CCCCC1`: the melting point amounted to 75 °C.
`Cc1nnc2ccc(-c3cccnc3)cn12`: the melting point was 199 to 202 °C.
Under `FC(F)(F)c1n[nH]c(C(F)(F)F)n1` stands 74 to 75 °C; under `NCCCCOc1ccc2c(c1)NC(=O)C(CC(=O)O)C2` (configuration not stated), 229 to 230 °C.
`COC(=O)c1c(F)cc(OCCNC(=O)C2Cc3ccccc3N2S(=O)(=O)c2ccc(-c3ccc(F)cc3C)cc2)cc1F` (configuration not stated) gave a melting point of 65 to 72 °C.
`COc1cccc(C(=O)Nc2ccc3sc(C)nc3c2Cl)c1`: the melting point was 177 to 179 °C.
Under `CC1(C)CC(=O)Nc2ccc(-c3cccc(Cl)c3)cc21` stands 211 to 215 °C; under `CC(=O)O[C@H]1C[C@@H](n2ncc(Cl)c(Cl)c2=O)[C@H](O)[C@@H]1O` (racemic), 119 to 122 °C.
With `O=C(NCc1ccc(F)cc1)c1ccnc(N2CCN(C(F)(F)c3ccc(C(F)F)cc3)C2=O)c1` the figure was 173 to 175 °C; with `O=C(NC(Cc1ccc(OCc2ccccc2)cc1)C(=O)O)c1cn2cc(-c3ccc(Cl)cc3Cl)ccc2n1` (configuration not stated), 237 to 239 °C.
With `Cc1nn(CCO)c(C)c1Oc1cc(Cl)cc(C#N)c1` the figure was 114 to 116 °C.
`O=S(=O)(c1ccc(-n2ncnc2-c2cnccn2)cc1)C(F)F` showed a melting point of 152 to 154 °C.
Under `CN1C(=O)C(NC(=O)NC(C)(C)C)N=C(c2ccccc2)c2ccccc21` (configuration not stated) stands 281 to 282 °C; under `CCC1=NCC(c2cccc(O)c2)O1` (configuration not stated), under 84 °C.
For `O=C(C=Cc1ccc(Cl)cc1)C1(Cl)CC1`, the melting point was determined as 92 °C.
`CN(C)Cc1cc(C(=O)c2sccc2Cl)cc(C(C)(C)C)c1O` had a melting point of 131 to 132 °C.
Under `FCc1cccc(C#CCCn2ncc(-c3ccc(F)cc3)n2)n1` stands 84 to 86 °C; under `O=C(O)c1cccc(-c2ccc3c(c2)N(Cc2ccc(Cl)c(Cl)c2)CC3)c1`, 167 to 168 °C; under `Cn1nnc2cccc(S(N)(=O)=O)c21`, 198 to 200 °C.
Under `CCCCCCCCCCCCCCOc1ccc(C(=O)Nc2cccc(CO)c2)cc1` stands 112 to 115 °C; under `N#Cc1cnn2c(C(F)(F)F)cc(-c3ccccn3)nc12`, 208 °C; under `Cc1cccc2c1C(=O)C1(CCOC1=O)S2` (configuration not stated), 106 °C.
With `O=C(O)CCCCCNS(=O)(=O)c1ccc(Cl)cc1` the figure was 126 to 127 °C.
For the compound `COc1ccc(C(=O)Nc2ccccc2)cc1NC(=S)Nc1cccc(Cl)c1`, the melting point is 165 to 168 °C.
As to `c1ccc2c(c1)C[C@H]1CSC(=Nc3csc4ncccc34)N1C2`, the melting point lay in the range of 145 to 146 °C.
For the compound `CCCCCCCCCn1ccc(C#N)cc1=O`, the melting point is 46 to 48 °C.
Under `COc1ccc(-c2cnc3[nH]cc(C(=O)C(C)(C)C)c3n2)cc1N1CCCC1` stands 211 to 213 °C; under `COc1ccc(O)c(OC)c1-c1ccc(C[C@H](NC(=O)c2c(Cl)cccc2Cl)C(=O)O)cc1`, 164 to 165 °C; under `O=c1[nH]c2ccc(-c3cccc([N+](=O)[O-])c3)cc2[nH]1`, 324 to 325 °C.
With `CNC(=O)N1CCC(c2nn(-c3ccccc3)c3cc(F)ccc23)CC1` the figure was 163 to 165 °C; with `COCCNC(=O)c1ccc2c(c1)C(=NNc1ccc(S(N)(=O)=O)cc1)C(=O)N2`, over 230 °C; with `Cc1ccccc1C(Oc1cc(OCc2ccc3ncoc3c2)ccc1C#N)C(=O)O` (racemic), 172 to 178 °C.
Under `NCC(=O)Nc1ccc([N+](=O)[O-])cc1C(=NO)c1ccccc1F` stands 198 °C; under `NS(=O)(=O)c1cc(C(=O)OCC(=O)N[C@@H](CCO[N+](=O)[O-])CO[N+](=O)[O-])c(NCc2ccco2)cc1Cl`, 93 to 95 °C; under `CC(C)c1cccc(C(C)C)c1NC(=O)Nc1nc(-c2ccccc2)ns1`, 180 to 183 °C.
